In patent US7309591B2, “Method for the production of resveratrol in cell cultures” (Universidad de Alicante, priority 2002, dated 2007):

Assays:
[1] = tested on: Vitis vinifera var. Monastrell green line cells; experiment: Elicitation of t-resveratrol production in grapevine cell suspension, Monastrell green; format: cell-based; settings: cyclodextrin 50 mmol/liter in medium (BETA 15 mmol/liter); 96 hours of incubation; heavy presence of cis-resveratrol
Experimental: (§1) Vitis vinifera var. Monastrell: Two grapevine cell lines of cultivar Monastrell, one established in the dark (albino line) and another established in the presence of white light (green line) from immature fruits have been used. All manipulations and incubations for the green line were carried out in lighting conditions, but for the albino line, incubations for callus generation, development, and growth, as well as incubations of cell suspensions, were performed in the dark. For this, immature grapes approximately 5 mm in diameter were superficially sterilized by immersion in a 7% calcium hypochlorite solution for 15 minutes. After this time, and always under sterile conditions, grapes were washed 3 times with sterile bidistilled water, their seeds removed, and were divided into 4 portions. These portions (explants) were deposited until microcalluses appeared in a Petri dish containing a solid culture medium based on the medium reported by Murashige and Skoog (Murashige, T and Skoog, F. 1962. “A revised medium for rapid growth and bioassays with tobacco tissue cultures”. Physiologia Plantarum 15:473-497), supplemented with Morel vitamins, casein hydrolysate (0.25 g/l), saccharose (30 g/l) as carbonated source, and α-nafthalenacetic acid (0.1 mg/l) and kinetin (0.2 mg/l) as hormones, 8 g/l of purified agar, and adjusted to pH 6. Finally, these microcalluses were transferred to 250 ml flasks containing 80 ml of this same solid culture medium for callus development. Cell suspensions were started, from friable calluses, in 250 ml flasks containing 80 ml of Gamborg B5 basal medium, supplemented with Morel vitamins, casein hydrolysate (0.25 g/l), saccharose (20 g/l) as carbonated source, and α-nafthalenacetic acid (0.1 mg/l) and kinetin (0.2 mg/l) as hormones, in the absence of agar. The cells in liquid medium were kept in an orbital shaker at 100 rpm and 25° C.; the green line was submitted to a photoperiod of 14 hours of light (6 W/m^2) and 10 h in the dark, whereas the albino line was kept in the dark at all times.
(§2) For each elicitation experience, 4 g of fresh weight of cells previously washed with fresh medium and filtered were taken under sterile conditions. These cells were transferred to 50 ml flasks and replaced by the addition of 10 ml of sterile fresh medium supplemented in each case with the cyclodextrins stated below:
(§3) The flasks were incubated under the same conditions as described above for time periods ranging from 24 and 96 hours.
(§4) Once the incubation time had been completed, the cells were separated from the medium by filtration by making a slight vacuum with the help of a water pump, and the cells and the filtrate were separately collected.
(§5) For this, an aliquot of the filtrate was diluted in fresh medium, filtered through a 0.2 μm Anopore filter, and 20 μl of filtrate were injected in a LiChrospher 100 RP-18 column (250×4 mm, particle size 5 μm). Two types of solvents were used as mobile phase: solvent A, 0.05% trifluoroacetic acid in water, and solvent B, 0.05% trifluoroacetic acid in methanol:acetonitrile 60:40 vol/vol. The sample is eluted at a flow rate of 1 ml/min of the following solvent mixture: 0 min, 10% B; 5 min, 15% B; 40 min, 35% B; 45 min, 65% B; 50 min, 65% B; 55 min, 10% B; and at a column temperature of 35° C. (Dalluge et al., 1998. J. Chromatogr. A 793:265-274). […] Gamay corresponding to the start of incubation and to 96 hours of incubation in a culture medium containing RAMEB.
(§6) For routine analysis of t-resveratrol, an aliquot of the filtrate was diluted with fresh medium and its ultraviolet absorption spectrum was recorded using a Kontron Uvikon 940 spectrophotometer taking as reference the fresh medium. The concentration of t-resveratrol in the supernatant was estimated using a molar extinction coefficient at 306 nm of 26,800 M^−1 cm^−1 (Siemann, E. H. and Creasy, L. L. 1992, “Concentration of the phytoalexin resveratrol in wine”, Am. J. Enol. Vitic. 43:49-52). […]

[2] = tested on: Vitis vinifera var. Monastrell albino line cells; experiment: Elicitation of t-resveratrol production in grapevine cell suspension, Monastrell albino; format: cell-based; settings: cyclodextrin 50 mmol/liter in medium (BETA 15 mmol/liter); 96 hours of incubation; kept in the dark
Experimental: as §1, §2, §3, §4, §5, §6

[3] = tested on: Vitis vinifera var. Gamay rouge cells; experiment: Elicitation of t-resveratrol production in grapevine cell suspension, Gamay rouge; format: cell-based; settings: cyclodextrin 50 mmol/liter in medium (BETA 15 mmol/liter); 96 hours of incubation; occasional presence of other unidentified phenolic products
Experimental: Vitis vinifera var. Gamay rouge: A grapevine cell line established by J. C. Pech in 1978 (ENSAT, Toulouse, France) from immature fruits of grapevine from the cultivar Gamay Fréaux has been used. The calluses were kept in 250 ml flasks containing 80 ml of Gamborg B5 basal medium (Gamborg et al. 1968. Experimental Cell Research 50:151-158) supplemented with Morel vitamins (Morel, G. 1970. “Le probléme de la transformation tumorale chez les végétaux”. Physiologie Végétale, 8:189-204), casein hydrolysate (0.25 g/l), saccharose (20 g/l) as carbonated source, and α-nafthalenacetic acid (0.1 mg/l) and kinetin (0.2 mg/l) as hormones (hereinafter, medium). This medium is adjusted to pH 6 and sterilized by applying humid heat (autoclave) for 20 min at a pressure of 121.2 kPa (1.2 athm), acquiring a solid consistency by the addition of purified agar (8 g/l) when the medium is cooled. Cell suspensions were started, from friable calluses obtained in the above described medium, in 250 ml flasks containing 80 ml of agar-free medium. The cells in liquid medium were kept in an orbital shaker at 100 rpm and 25° C., under a photoperiod of 14 hours of light (6 W/m^2) and 10 h in the dark.
as §2, §3, §4, §5
For routine analysis of t-resveratrol, an aliquot of the filtrate was diluted with fresh medium and its ultraviolet absorption spectrum was recorded using a Kontron Uvikon 940 spectrophotometer taking as reference the fresh medium. The concentration of t-resveratrol in the supernatant was estimated using a molar extinction coefficient at 306 nm of 26,800 M^−1 cm^−1 (Siemann, E. H. and Creasy, L. L. 1992, “Concentration of the phytoalexin resveratrol in wine”, Am. J. Enol. Vitic. 43:49-52). […] Gamay corresponding to the start of incubation and to 96 hours of incubation in a culture medium containing RAMEB.
The results obtained, expressed as mg of t-resveratrol per litre of filtrate, eliciting the cells with different cyclodextrins at concentrations of 50 mmol/litre of culture medium (except for BETA, for which the concentration corresponds to 15 mmol/litre due to its lower solubility), after 96 hours of incubation are given in Table 1.

[4] = tested on: grapevine cell suspensions (Vitis vinifera var. Gamay); settings: cited from earlier work
[5] = Solubility of t-resveratrol in an aqueous medium; format: physicochemical; settings: 25° C., 5 days in the dark
Experimental: Five millilitres of a 11,410 mg/l solution of t-resveratrol (99% pure according to the supplier; Sigma, Madrid) in ethanol were placed in an spherical bottle, and ethanol was evaporated to dryness with a N2 current. Residual ethanol was eliminated by keeping the bottle under low pressure overnight. Five millilitres of aqueous medium were added to the solid residue, and the bottle was tightly closed and kept under shaking at 25° C. for 5 days in the dark. The resulting suspension was filtered through 0.2 μm Anopore filters, and the concentration of t-resveratrol in the filtrate was analyzed by UV spectroscopy.
The concentration of t-resveratrol in the filtrates, expressed as mg oft-resveratrol per litre of filtrate, is given in Table 2.

[6] = tested on: crypt formation in aberrant colon; settings: rat model treated with a carcinogenic agent (azoxymethane); cited from earlier work
[7] = tested on: grapevine cells in suspension; experiment: Effect of cyclodextrins on grapevine cells in suspension (overall comparison, toxicity); format: cell-based, Vitis vinifera; settings: for Capacity to induce the synthesis of t-resveratrol compared with the other cyclodextrins tested: grapevine cells in suspension, 96 hours
Experimental: as §2, §3
It is also noted that the intensity of the effect depends on the variety and the cell line (greater production is seen in the albino Monastrell variety than in the green Monastrell variety).

Molecule	Trans-Resveratrol (mg/l) in filtrate, Monastrell green [1] [mg/L]	Trans-Resveratrol (mg/l) in filtrate, Monastrell albino [2] [mg/L]	Trans-Resveratrol (mg/l) in filtrate, Gamay Rouge [3] [mg/L]	also measured
OC[C@H]1O[C@@H]2O[C@H]3[C@H](O)[C@@H](O)[C@@H](O[C@H]4[C@H](O)[C@@H](O)[C@@H](O[C@H]5[C@H](O)[C@@H](O)[C@@H](O[C@H]6[C@H](O)[C@@H](O)[C@@H](O[C@H]7[C@H](O)[C@@H](O)[C@@H](O[C@H]8[C@H](O)[C@@H](O)[C@@H](O[C@H]1[C@H](O)[C@H]2O)O[C@@H]8CO)O[C@@H]7CO)O[C@@H]6CO)O[C@@H]5CO)O[C@@H]4CO)O[C@@H]3CO [BETA, β-cyclodextrin]	0	60	30	
COC[C@H]1O[C@@H]2O[C@H]3[C@H](O)[C@@H](OC)[C@@H](O[C@H]4[C@H](O)[C@@H](OC)[C@@H](O[C@H]5[C@H](O)[C@@H](OC)[C@@H](O[C@H]6[C@H](O)[C@@H](OC)[C@@H](O[C@H]7[C@H](O)[C@@H](OC)[C@@H](O[C@H]8[C@H](O)[C@@H](OC)[C@@H](O[C@H]1[C@H](O)[C@H]2OC)O[C@@H]8COC)O[C@@H]7COC)O[C@@H]6COC)O[C@@H]5COC)O[C@@H]4COC)O[C@@H]3COC [DIMEB, Heptakis (2,6-di-O-methyl)-β-cyclodextrin]	90	4680	3060	Ability to induce synthesis of t-resveratrol excreted into the culture medium [4]: induce
OC[C@H]1O[C@H](O[C@H]2[C@H](O)[C@@H](O)[C@@H](OC[C@H]3O[C@@H]4O[C@H]5[C@H](O)[C@@H](O)[C@@H](O[C@H]6[C@H](O)[C@@H](O)[C@@H](O[C@H]7[C@H](O)[C@@H](O)C(O[C@H]8[C@H](O)[C@@H](O)[C@@H](O[C@H]9[C@H](O)[C@@H](O)[C@@H](O[C@H]%10[C@H](O)[C@@H](O)[C@@H](O[C@H]3[C@H](O)[C@H]4O)O[C@@H]%10CO)O[C@@H]9CO)O[C@@H]8CO)O[C@@H]7CO)O[C@@H]6CO)O[C@@H]5CO)O[C@@H]2CO)[C@H](O)[C@@H](O)[C@@H]1O [MALTOSYL, Maltosyl-β-cyclodextrin]	20	660	390	
Oc1ccc(/C=C/c2cc(O)cc(O)c2)cc1 [t-resveratrol, trans-3,5,4′-trihydroxystilbene]				Solubility of t-resveratrol ([5]; Culture medium supplemented with 6.55 mg/ml of CAVASOL ® W7 M): 767 mg t-resveratrol/liter filtrated; Solubility of t-resveratrol ([5]; Culture medium supplemented with 6.55 mg/ml of DIMEB): 735 mg t-resveratrol/liter filtrated; Solubility of t-resveratrol ([5]; Culture medium supplemented with 6.55 mg/ml of RAMEB): 786 mg t-resveratrol/liter filtrated; Solubility of t-resveratrol ([5]; Culture medium): 48.8 mg t-resveratrol/liter filtrated; Solubility of t-resveratrol ([5]; Ultrapure water): 36.5 mg t-resveratrol/liter filtrated; Inhibition of crypt formation in aberrant colon [6]: significant inhibition of crypt formation
(2-hydroxy) propyl-β-cyclodextrin [HYPROB]	90	4110	990	
Randomly methylated β-cyclodextrin [CAVASOL ® W7 M]	92	4963	3280	Capacity to induce the synthesis of t-resveratrol compared with the other cyclodextrins tested [7]: greater capacity to induce the synthesis of t-resveratrol
Randomly methylated β-cyclodextrin [RAMEB]	101	5027	3320	Capacity to induce the synthesis of t-resveratrol compared with the other cyclodextrins tested [7]: greater capacity to induce the synthesis of t-resveratrol
sulphated β-cyclodextrin sodium salt [SULFOB]	0	0	0	Toxicity to grapevine cells in suspension ([7]; 50 mmol/liter in culture medium): toxic and kill the cells
